PubChem BioAssay (NCI)
Values joined by “and” are separate entries in the source; they are usually repeats but may differ in a detail not shown here. Equal values may be shown once.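 Results reflect a 48-hour exposure of cells in 96-well plates to compound at five concentrations. GI50 is the concentration that inhibits growth by half. TGI marks complete inhibition of growth.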

Tests used:
Experiment in all cases: NCI tumour cell line growth inhibition, 48 h
SK-MEL-28 melanoma = system: SK-MEL-28 melanoma
SR leukemia = system: SR leukemia
SK-OV-3 ovarian = system: SK-OV-3 ovarian
OVCAR-5 ovarian = system: OVCAR-5 ovarian
A549 NSCLC = system: A549 NSCLC
MCF7 breast = system: MCF7 breast
TK-10 renal = system: TK-10 renal
PC-3 prostate = system: PC-3 prostate
UACC-257 melanoma = system: UACC-257 melanoma
HCC-2998 colon = system: HCC-2998 colon

SMILES | GI50 (SK-MEL-28 melanoma) [µM] | TGI (SK-MEL-28 melanoma) [µM] | GI50 (SR leukemia) [µM] | TGI (SR leukemia) | TGI (SK-OV-3 ovarian) [µM] | GI50 (OVCAR-5 ovarian) [µM] | TGI (OVCAR-5 ovarian) [µM] | GI50 (A549 NSCLC) [µM] | TGI (A549 NSCLC) [µM] | GI50 (MCF7 breast) [µM] | TGI (MCF7 breast) [µM] | GI50 (TK-10 renal) [µM] | TGI (TK-10 renal) [µM] | GI50 (PC-3 prostate) [µM] | TGI (PC-3 prostate) [µM] | GI50 (UACC-257 melanoma) [µM] | TGI (UACC-257 melanoma) | TGI (HCC-2998 colon) | GI50 (SK-OV-3 ovarian) [µM] | GI50 (HCC-2998 colon) [µM]
COc1ccc2c(c1)/C(=C\c1c(-c3ccccc3)nc3sccn13)C(=O)N2 | 2.61 | 21.9 | 24 | > 100 µM | > 65.8 | 5.13 | 40.4 | 7.2 | > 100 | > 100 | > 100 | > 23.4 | > 72.9 | 9.55 | > 35.6 | 28.7 | 89.3 µM |  |  | 
CC(=O)O[C@H]1CC[C@@]2(C)C(=CC[C@H]3C(CC#N)[C@@](C)(C#N)CCC32)C1 (stereo not given in full) |  | > 100 |  |  | > 100 |  | > 100 |  | > 100 |  |  |  | > 100 |  |  |  | > 100 µM | > 100 µM |  | 
CCOC(=O)NC(=O)c1cn(C2CCCCC2)c(=O)n(C)c1=O |  | > 100 |  | > 100 µM | > 100 |  | > 100 |  | > 100 |  |  |  | > 100 |  |  |  | > 100 µM | > 100 µM |  | 
CC(=O)OC1CC2C(C)(C)C(=O)C=C[C@]2(C)C2CCC3(C)C(c4ccoc4)C(=O)C4OC43[C@]12C (stereo not given in full) |  | 32 |  | 39.4 µM | 43.6 |  | 60.9 |  | 46 |  |  |  | > 100 |  |  |  | 35.1 µM | 30.7 µM |  | 
CO[C@H]1/C=C/O[C@@]2(C)Oc3c(C)c(O)c4c(O)c(c(/C=N/N5C(C)CN(Cc6ccc(C#N)cc6)CC5C)c(O)c4c3C2=O)NC(=O)/C(C)=C\C=C\[C@H](C)[C@H](O)[C@@H](C)[C@@H](O)[C@@H](C)[C@H](OC(C)=O)[C@@H]1C (stereo not given in full) | 8.45 | 16.4 |  |  | 23.4 | 8.88 | 18.1 | 6.81 | 17.1 | 6.37 | 24.3 | 7.92 | 18.8 |  |  | 6.35 | 15.8 µM | 17.6 µM | 9.55 | 7.87
COC(=O)CCCCCOS(=O)(=O)c1ccc(C)cc1 |  | > 100 |  | > 100 µM | > 100 |  | > 100 |  | > 100 |  |  |  | > 100 |  |  |  | > 100 µM | > 100 µM |  | 
Nc1ccc(C(=O)CC2(O)C(=O)Nc3ccccc32)cc1 (stereo not given) |  | > 100 |  |  | > 100 |  | > 100 |  | > 100 |  |  |  | > 100 |  |  |  | > 100 µM |  |  | 
CC1(C)N=C(N)N=C(N)N1c1cccc(CCCCc2ccc(Cl)c(S(=O)(=O)F)c2)c1 | 7.67 | 21.2 | 2.44 | 16.8 µM | 27.8 | 6.02 | 22.1 | 4.38 | 36 | 3.28 | 17.7 | 10.7 | 39.3 |  |  | 1.14 | 18.7 µM | 16 µM | 11.7 | 1.92
COc1cccc(/C=C2\N=C(Cl)OC2=O)c1O |  | > 100 |  | > 100 µM | > 100 |  | > 100 |  | > 100 |  |  |  | > 100 |  |  |  | > 100 µM | > 100 µM |  | 
Oc1ccc(Br)cc1C=NC1CCCCC1 |  | > 100 |  |  | > 100 |  | > 100 |  | > 100 |  | > 100 |  | > 100 |  | > 100 |  | > 100 µM | > 100 µM |  | 
Cc1cccc2c(=O)c3c(sc12)c(NCCCN)nc1ccccc13 | 1.89 | 3.41 |  |  |  | 1.56 | 3.03 | 0.88 | 2.45 | 1.11 | 2.57 |  |  | 1.37 | 3.04 | 1.76 | 3.46 µM | 3.39 µM |  | 1.67
CC1CCCc2c1n[nH]c2CC1CC(=O)NC(=O)C1 (stereo not given) |  | > 100 |  | > 100 µM | > 100 |  | > 100 |  | > 100 |  |  |  | > 100 |  |  |  | > 100 µM | > 100 µM |  | 
CCCC[C@H](CCc1ccccc1)N(C(=O)OC)N1CCC[C@H]1COC |  | 38 |  | > 100 µM | 60.2 |  | 32.4 |  | 67.1 |  |  |  | 79.3 |  |  |  | 36.2 µM | 28.1 µM |  | 
NC1=C(O)/C(=N/NS(=O)(=O)c2ccccc2)C(c2ccc3c(c2)OCO3)O1 (stereo not given) |  | > 100 |  | > 100 µM | > 100 |  | > 100 |  | > 100 |  |  |  | > 100 |  |  |  | > 100 µM | > 100 µM |  | 
O=[N+]([O-])c1cc(I)cc(/C=N/NS(=O)(=O)c2ccc(F)cc2)c1O |  | 81.6 |  | 46.2 µM | 70.2 |  | > 100 |  | > 100 |  |  |  | 77.7 |  |  |  | 62.3 µM | > 100 µM |  | 
C[N+]1(CCNP(=S)(NCC[N+]2(C)Cc3c(ccc4c3OCO4)C3C2c2cc4c(cc2C[C@@H]3O)OCO4)NCC[N+]2(C)Cc3c(ccc4c3OCO4)C3C2c2cc4c(cc2C[C@@H]3O)OCO4)Cc2c(ccc3c2OCO3)C2C1c1cc3c(cc1C[C@H]2O)OCO3 (stereo not given in full) | 3.51 |  | 1.75 |  |  |  | < 0.00191 | 2.89 |  |  |  | 8.2 |  |  |  | 1.44 |  |  | 2.96 | 5.22
Cn1c(=O)nc2n(-c3ccc(F)c(F)c3)c3ccccc3nc-2c1=O |  |  |  |  | > 100 |  | 37.5 |  | 60.5 |  |  |  | > 100 |  |  |  | 20.1 µM | 23.7 µM |  | 
CC1=NC(C)=C(/C(C)=N/NC(=O)c2ccccc2O)C(C)/C1=C(/C)NNC(=O)c1ccccc1O (stereo not given) |  | > 100 |  | 42.5 µM | > 100 |  | 92.1 |  | 96.5 |  |  |  | 98.8 |  |  |  | 76.6 µM |  |  | 
CCCCCCCCCCNC(=S)OC |  | > 100 |  | 55.4 µM | > 100 |  |  |  | > 100 |  |  |  | > 100 |  |  |  | 83.8 µM | > 100 µM |  | 
CSc1nc2c(nc(N)n2C2OC(CO)C(O)C(O)C2O)c(=O)[nH]1 (stereo not given) |  | > 100 |  | > 100 µM | > 100 |  |  |  | > 100 |  |  |  | > 100 |  |  |  | > 100 µM | > 100 µM |  | 
CN1C(c2ccccc2)CC(=NO)CC1c1ccccc1 (stereo not given) |  | > 100 | 24.9 | > 100 µM and 80.1 µM | > 100 |  | > 100 | 88.1 | > 100 | 44.3 |  | 66.5 | > 100 |  |  | 26.8 | > 100 µM and 79.9 µM | > 100 µM and 81.6 µM |  | 30.5
